Measurements from PubChem BioAssay AID248 (DTP/NCI, 2004).
Where “and” joins values, the source holds several entries; their conditions need not be identical. Identical values can stand only once. Inconclusive results and toxic doses are left out. No stated cut-off is given here; in the data, active means T/C of 150% or more; inactive means T/C below 125%. Square brackets hold non-standard residues; d marks the D form. Peptide text beside a SMILES is read from it. * marks the point of attachment. ξ: configuration not given here. ξE = NC(CCC(=O)O)C(=O)O; Cbz = O=C(OCc1ccccc1)*

Test system: L1210 leukemia ip in BDF1 mice, survival T/C
Assay: NCI In Vivo Anticancer Drug Screen. Data for tumor model L1210 Leukemia (intraperitoneal) in B6D2F1 (BDF1) mice
Conditions: endpoint: mean survival time, higher = longer survival
Method in brief: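 Transplantable tumor model; survival measured in treated vs vehicle control mice. Value = treated/control.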

[1] = dose: 100.0 mg/kg/injection, schedule: Q01DX001 (ip), vehicle: carboxymethylcellulose (CMC)
[2] = dose: 200.0 mg/kg/injection, schedule: Q01DX001 (ip), vehicle: carboxymethylcellulose (CMC)
[3] = dose: 400.0 mg/kg/injection, schedule: Q01DX001 (ip), vehicle: carboxymethylcellulose (CMC)
[4] = dose: 100.0 mg/kg/injection, schedule: Q04DX003 (ip), vehicle: saline
[5] = dose: 200.0 mg/kg/injection, schedule: Q04DX003 (ip), vehicle: saline
[6] = dose: 100.0 mg/kg/injection, schedule: Q04DX003 (ip), vehicle: saline with Tween-80
[7] = dose: 200.0 mg/kg/injection, schedule: Q04DX003 (ip), vehicle: saline with Tween-80
[8] = dose: 400.0 mg/kg/injection, schedule: Q04DX003 (ip), vehicle: saline with Tween-80
[9] = dose: 100.0 mg/kg/injection, schedule: Q01DX009 (ip), vehicle: Klucel (hydroxypropylcellulose) (HPC)
[10] = dose: 100.0 mg/kg/injection, schedule: Q04DX003 (ip), vehicle: Klucel (hydroxypropylcellulose) (HPC)
[11] = dose: 200.0 mg/kg/injection, schedule: Q01DX009 (ip), vehicle: Klucel (hydroxypropylcellulose) (HPC)
[12] = dose: 200.0 mg/kg/injection, schedule: Q04DX003 (ip), vehicle: Klucel (hydroxypropylcellulose) (HPC)
[13] = dose: 400.0 mg/kg/injection, schedule: Q04DX003 (ip), vehicle: Klucel (hydroxypropylcellulose) (HPC)
[14] = dose: 400.0 mg/kg/injection, schedule: Q01DX009 (ip), vehicle: Klucel (hydroxypropylcellulose) (HPC)
[15] = dose: 50.0 mg/kg/injection, schedule: Q01DX009 (ip), vehicle: saline with Tween-80
[16] = dose: 100.0 mg/kg/injection, schedule: Q01DX001 (ip), vehicle: saline
[17] = dose: 200.0 mg/kg/injection, schedule: Q01DX001 (ip), vehicle: saline
[18] = dose: 400.0 mg/kg/injection, schedule: Q01DX001 (ip), vehicle: saline

Measured: T/C

O=C1CC(c2ccc(O)cc2)CC(=O)C1C(=O)Nc1ccccc1 (centres undefined)
inactive: dose: 100.0 mg/kg/injection, schedule: Q01DX001 (ip), vehicle: other 101 % of control | dose: 200.0 mg/kg/injection, schedule: Q01DX001 (ip), vehicle: other 100 % of control | dose: 400.0 mg/kg/injection, schedule: Q01DX001 (ip), vehicle: other 97 % of control

Brc1cc(Br)c2c(c1)-c1ccccc1C2
inactive: [1] 96 % of control | [2] 113 % of control | [3] 96 % of control

CC1(C)N=C(N)N=C(N)N1c1ccc(CN)cc1
inactive: [4] 109 % of control | [5] 101 % of control

Cc1cc(Br)cnc1Cl
inactive: [6] 96 % of control | [7] 94 % of control | [8] 96 % of control

C=CCc1ccccc1NC(=O)NCCCl
inactive: dose: 50.0 mg/kg/injection, schedule: Q01DX009 (ip), vehicle: Klucel (hydroxypropylcellulose) (HPC) 106 % of control | [9] 100 % of control | [10] 93 % of control | [11] 111 % of control | [12] 104 % of control

CSc1ccc(C2CCCCC2OS(C)(=O)=O)cc1 (centres undefined)
inactive: [10] 95 % of control | [12] 92 % of control | [13] 95 % of control

Nc1nc(N)nc(-c2ccccc2NC(=O)c2ccccc2N)n1
inactive: [9] 95 % of control | [10] 103 % of control | [11] 91 % of control | [12] 101 % of control | [14] 101 % of control | [13] 95 % of control

CS(=O)(=O)Cc1ccccc1
inactive: [9] 101 % of control | dose: 100.0 mg/kg/injection, schedule: Q04DX002 (ip), vehicle: Klucel (hydroxypropylcellulose) (HPC) 86 % of control | [11] 101 % of control | dose: 200.0 mg/kg/injection, schedule: Q04DX002 (ip), vehicle: Klucel (hydroxypropylcellulose) (HPC) 101 % of control | [14] 86 % of control | dose: 400.0 mg/kg/injection, schedule: Q04DX002 (ip), vehicle: Klucel (hydroxypropylcellulose) (HPC) 90 % of control

Cc1ccc2c3c(c(=O)oc2c1)CCCC3
inactive: dose: 50.0 mg/kg/injection, schedule: Q01DX001 (ip), vehicle: carboxymethylcellulose (CMC) 96 % of control | [1] 112 % of control | [2] 100 % of control | [3] 108 % of control

Cn1ncc2c(N)[nH]nc21
inactive: dose: 75.0 mg/kg/injection, schedule: Q01DX001 (ip), vehicle: saline 107 % of control | dose: 150.0 mg/kg/injection, schedule: Q01DX001 (ip), vehicle: saline 90 % of control | dose: 300.0 mg/kg/injection, schedule: Q01DX001 (ip), vehicle: saline 98 % of control

Cc1cc(O)ccc1CCC#N
inactive: dose: 100.0 mg/kg/injection, schedule: Q01DX009 (ip), vehicle: saline 96 % of control and 91 % of control | dose: 100.0 mg/kg/injection, schedule: Q04DX002 (ip), vehicle: saline with Tween-80 95 % of control and 101 % of control | dose: 200.0 mg/kg/injection, schedule: Q01DX009 (ip), vehicle: saline 104 % of control and 115 % of control | dose: 200.0 mg/kg/injection, schedule: Q04DX002 (ip), vehicle: saline with Tween-80 95 % of control and 96 % of control | dose: 400.0 mg/kg/injection, schedule: Q01DX009 (ip), vehicle: saline 96 % of control and 89 % of control | dose: 400.0 mg/kg/injection, schedule: Q04DX002 (ip), vehicle: saline with Tween-80 95 % of control and 101 % of control

Cc1nc2c(NC(=O)CCl)nn(C)c2nc1C
inactive: [15] 98 % of control | dose: 100.0 mg/kg/injection, schedule: Q01DX009 (ip), vehicle: saline with Tween-80 98 % of control

CC(C)(CO)N=Cc1ccccc1O.CC(C)(CO)N=Cc1ccccc1O.[Co]
inactive: dose: 12.5 mg/kg/injection, schedule: Q01DX001 (ip), vehicle: saline 97 % of control | dose: 25.0 mg/kg/injection, schedule: Q01DX001 (ip), vehicle: saline 97 % of control | dose: 50.0 mg/kg/injection, schedule: Q01DX001 (ip), vehicle: saline 92 % of control

O=C(O)CCC(NC(=O)OCc1ccccc1)C(=O)NCC(=O)O (centres undefined) (Cbz-[ξE]-Gly-OH)
inactive: dose: 12.5 mg/kg/injection, schedule: Q04DX002 (ip), vehicle: saline 95 % of control | dose: 25.0 mg/kg/injection, schedule: Q04DX002 (ip), vehicle: saline 92 % of control | dose: 50.0 mg/kg/injection, schedule: Q04DX002 (ip), vehicle: saline 100 % of control

CCC(=O)c1ccc(NC(=S)Nc2ccccc2)cc1
inactive: dose: 5.0 mg/kg/injection, schedule: Q01DX009 (ip), vehicle: saline with Tween-80 104 % of control | dose: 10.0 mg/kg/injection, schedule: Q01DX009 (ip), vehicle: saline with Tween-80 97 % of control | dose: 20.0 mg/kg/injection, schedule: Q01DX009 (ip), vehicle: saline with Tween-80 101 % of control and 86 % of control | dose: 40.0 mg/kg/injection, schedule: Q01DX009 (ip), vehicle: saline with Tween-80 95 % of control and 89 % of control | dose: 80.0 mg/kg/injection, schedule: Q01DX009 (ip), vehicle: saline with Tween-80 86 % of control and 88 % of control | [4] 110 % of control | [5] 100 % of control | dose: 320.0 mg/kg/injection, schedule: Q01DX009 (ip), vehicle: saline with Tween-80 87 % of control | dose: 400.0 mg/kg/injection, schedule: Q04DX003 (ip), vehicle: saline 98 % of control

O=C1CCC(N2C(=O)C3C4c5ccccc5C(c5ccccc54)C3C2=O)C(=O)N1 (centres undefined)
inactive: [6] 97 % of control | [4] 97 % of control | [7] 93 % of control | [5] 89 % of control

O=C1c2ccccc2C(=O)N1CNc1ccccc1/C(=N/O)c1ccccc1
inactive: dose: 87.5 mg/kg/injection, schedule: Q01DX009 (ip), vehicle: Klucel (hydroxypropylcellulose) (HPC) 95 % of control | dose: 175.0 mg/kg/injection, schedule: Q01DX009 (ip), vehicle: Klucel (hydroxypropylcellulose) (HPC) 93 % of control | dose: 350.0 mg/kg/injection, schedule: Q01DX009 (ip), vehicle: Klucel (hydroxypropylcellulose) (HPC) 93 % of control

CCOC(=O)c1c(C)cn2c1OC(C)CC2(C)C (centres undefined)
inactive: dose: 100.0 mg/kg/injection, schedule: Q01DX001 (ip), vehicle: Klucel (hydroxypropylcellulose) (HPC) 105 % of control | dose: 200.0 mg/kg/injection, schedule: Q01DX001 (ip), vehicle: Klucel (hydroxypropylcellulose) (HPC) 94 % of control | dose: 400.0 mg/kg/injection, schedule: Q01DX001 (ip), vehicle: Klucel (hydroxypropylcellulose) (HPC) 96 % of control

O=C(O)C/C=C/C(=O)NCc1cccnc1
inactive: [16] 97 % of control | [17] 97 % of control | [18] 88 % of control

CCCCCC(C)(O)CC (centres undefined)
inactive: [16] 93 % of control | [17] 102 % of control | [18] 96 % of control

O=[N+]([O-])c1cccc2c1CCCC2
inactive: dose: 12.5 mg/kg/injection, schedule: Q01DX009 (ip), vehicle: saline with Tween-80 98 % of control | dose: 25.0 mg/kg/injection, schedule: Q01DX009 (ip), vehicle: saline with Tween-80 93 % of control | [15] 98 % of control | [6] 107 % of control | dose: 200.0 mg/kg/injection, schedule: Q01DX009 (ip), vehicle: saline with Tween-80 87 % of control | [7] 105 % of control | dose: 400.0 mg/kg/injection, schedule: Q01DX009 (ip), vehicle: saline with Tween-80 105 % of control | [8] 96 % of control

CCOC(=O)/C=C(/Nc1ccc(OC)cc1[N+](=O)[O-])C(=O)OCC
inactive: [16] 95 % of control | [17] 95 % of control | [18] 104 % of control

CCCCC(/C=N/N=C(N)N)=N\N=C(N)N
inactive: dose: 15.0 mg/kg/injection, schedule: Q01DX Z (ip), vehicle: saline 95 % of control | dose: 15.0 mg/kg/injection, schedule: Q01DX Z (oral), vehicle: saline 98 % of control | dose: 30.0 mg/kg/injection, schedule: Q01DX Z (ip), vehicle: saline 103 % of control | dose: 30.0 mg/kg/injection, schedule: Q01DX Z (oral), vehicle: saline 91 % of control | dose: 60.0 mg/kg/injection, schedule: Q01DX Z (oral), vehicle: saline 91 % of control | dose: 120.0 mg/kg/injection, schedule: Q01DX Z (oral), vehicle: saline 94 % of control
